≈ marks a conversion by molar mass, not a printed value. Positions of bridges follow the written chain, without caps; N, C: chain ends. Non-standard residues stand in square brackets, D forms with d. Residues, ends and D or L forms follow the SMILES beside them. No end group written: not given here. Bip = N[C@@H](Cc1ccc(-c2ccccc2)cc1)C(=O)O; 2Nal = N[C@@H](Cc1ccc2ccccc2c1)C(=O)O
Columns and labels:
[1] = system: E. faecium BCRC 15B0132 (VRE); assay: microbe, parasite or virus in culture; type: cell-based, Enterococcus faecium; conditions: BCRC 15, 16 h
Method: (§1) The antibacterial activities of peptides were determined by the standard broth microdilution method according to the guidelines of the Clinical and Laboratory Standards Institute (CLSI). Briefly, E. coli ATCC 25922 were incubated in MHB, and E. faecium BCRC 15B0132, VISA and VRSA strains were incubated in TSB overnight at 37 °C. The cell cultures were regrown to the mid-log phase and subsequently diluted to a final concentration of 5 × 10^5 CFU/mL. The 1 µL peptides or antibiotic were loaded into each well at the final concentration of 64, 32, 16, 8, 4, 2, 1, and 0.5 µg/mL, then loaded 99 µL diluted microbes into each well of polypropylene 96-well plate. After 16 h of incubation at 37 °C, the turbidity at OD600 was measured by the microplate reader. The minimal inhibitory concentration (MIC) value was defined as the lowest concentration of peptide or antibiotic, which inhibited the 90% visible growth of bacteria. All experiments were repeated three times independently.

[2] = system: Vancomycin-intermediate S. aureus 01 (VISA01); assay: microbe, parasite or virus in culture; type: cell-based, Staphylococcus aureus; conditions: Vancomycin-intermediate 01 (VISA01, 16 h)
Method: as §1

[3] = system: Vancomycin-intermediate S. aureus 02 (VISA02); assay: microbe, parasite or virus in culture; type: cell-based, Staphylococcus aureus; conditions: Vancomycin-intermediate 02 (VISA02, 16 h)
Method: as §1

[4] = system: Vancomycin-intermediate S. aureus 03 (VISA03); assay: microbe, parasite or virus in culture; type: cell-based, Staphylococcus aureus; conditions: Vancomycin-intermediate 03 (VISA03, 16 h)
Method: as §1

[5] = system: Vancomycin-resistant S. aureus 01 (VRSA01); assay: microbe, parasite or virus in culture; type: cell-based, Staphylococcus aureus; conditions: VRSA01 (induced from VISA01 by serial passage); CLSI broth microdilution, TSB, 5 × 10^5 CFU/mL, 16 h, 37 °C; triplicate
Method: (§2) For the purpose of inducing vancomycin-resistant Staphylococcus aureus (VRSA), the VISA01, VISA02, and VISA03 bacteria were incubated overnight in culture medium, and transferring 50 µL of bacteria to 5 mL of fresh medium containing 2 μg/mL of vancomycin then incubated overnight. The bacteria were transferred to new tube with doubling vancomycin concentration and then incubated overnight again. The concentration of vancomycin during serial passage was 2, 4, 8, 16, and 32 µg/mL. The procedure was repeated until meeting the final concentration of 32 µg/mL. After serial passage, the cell resistance was confirmed by using an MIC assay.
as §1

[6] = system: Vancomycin-resistant S. aureus 02 (VRSA02); assay: microbe, parasite or virus in culture; type: cell-based, Staphylococcus aureus; conditions: VRSA02 (induced from VISA02 by serial passage); CLSI broth microdilution, TSB, 5 × 10^5 CFU/mL, 16 h, 37 °C; triplicate
Method: as §2, §1

[7] = system: Vancomycin-resistant S. aureus 03 (VRSA03); assay: microbe, parasite or virus in culture; type: cell-based, Staphylococcus aureus; conditions: VRSA03 (induced from VISA03 by serial passage); CLSI broth microdilution, TSB, 5 × 10^5 CFU/mL, 16 h, 37 °C; triplicate
Method: as §2, §1

E. coli ATCC 25922 [8] = assay: microbe, parasite or virus in culture; type: cell-based, Escherichia coli; conditions: ATCC 25922, 16 h
Method: as §1

[9] = system: VRE, VISA, VRSA, and E. coli strains; assay: microbe, parasite or virus in culture; type: cell-based; conditions: all strains studied (VRE, VISA 01-03, VRSA 01-03, E. coli), Table 2
Method: as §1

[10] = system: VRE, VISA, VRSA and E. coli strains; assay: Checkerboard assay, summary statements of the text over the strain panel; type: cell-based; conditions: peptide at ¼ ×MIC combined with vancomycin, all strains studied
Method: The synergistic effects of peptides in combination with vancomycin were investigated by checkerboard assay with slight modification. The peptides were fixed concentration at ¼ × MIC, then in combination with antibiotics at various concentrations in each well of 96-well plate. Then the peptide/antibiotic were mixed with inoculum (5 × 10^5 CFU/mL) and incubated at 37 °C for 16 h. The fractional inhibitory concentration (FIC) index was calculated as follows: FIC index = (MIC of drug A in combination/MIC of drug A alone) + (MIC of drug B in combination/MIC of drug B alone). An FIC index of ≤ 0.5 was defined as synergy, indifference was defined as an FIC index of 0.5 < FICI ≤ 4, antagonism was defined as an FIC index of > 4. The experiments were performed in triplicate.

[11] = system: E. faecium BCRC 15B0132 (VRE); assay: Time killing assay; type: cell-based, Enterococcus faecium; conditions: 5 × 10^5 CFU/mL, 1 × MIC, 0.5-24 h, 37 °C, triplicate
Method: (§3) The bactericidal activities of vancomycin, P-113, Phe-P-113, Bip-P-113, Dip-P-113, and Nal-P-113 against E. faecium BCRC 15B0132 (VRE) and E. coli ATCC 25922 were assessed by the time-kill analysis. The cells were grown overnight in TSB or MHB at 37 °C with shaking, and then fresh TSB or MHB was inoculated for growth to mid-logarithmic phase. Bacteria (5 × 10^5 CFU/mL) were treated with 1 × MIC vancomycin, P-113, Phe-P-113, Bip-P-113, Dip-P-113, and Nal-P-113 for 0.5, 1, 2, 4, 6, 10, and 24 h at 37 °C. Bacteria without peptides and vancomycin served as a control. Aliquots were removed at each time points, and 10-fold serial dilutions of the aliquot were plated onto the Müller-Hinton agar. The numbers of CFU were counted after 24 h of incubation at 37 °C. The detection limit for the colony counts was 2log10 CFU/mL.

E. faecium BCRC 15B0132 = assay: Uptake of BODIPY-labeled vancomycin, confocal laser scanning microscopy; type: cell-based, Enterococcus faecium; conditions: VRE 10^7 CFU/mL, 0.5 ×MIC peptide 30 min at 37 °C, then BODIPY-labeled vancomycin (2 μg/mL) 30 min; mean fluorescence intensity
Method: (§4) The fluorescence experiments were performed with slight modification as described previously. Briefly, the bacteria (10^7 CFU/mL) were incubated with 0.5 ×MIC antimicrobial peptides for 30 min and then treated with BODIPY-labeled vancomycin (2 μg/mL) for 30 min. Samples treated with BODIPY-labeled vancomycin only served as a control. After incubation, bacteria were centrifuged at 8000× g for 5 min, washed three times with PBS to remove unbinding fluorescence dye, and resuspended by PBS. The resuspended solution were loaded on the glass slides (Polysine™, Thermo Fisher Scientific, Waltham, MA, USA) and visualized under confocal laser scanning microscope (LSM 510 META, Carl Zeiss, Jena, Thüringen, Germany) equipped with a 64× oil objective lens (Carl Zeiss, Jena, Thüringen, Germany).

E. coli ATCC 25922 [12] = assay: as above; type: cell-based, Escherichia coli; conditions: E. coli 10^7 CFU/mL, 0.5 ×MIC peptide 30 min at 37 °C, then BODIPY-labeled vancomycin (2 μg/mL) 30 min; mean fluorescence intensity
Method: as §4

[13] = POPC:POPG (3:1, mol/mol) and POPC:LPS (4:1, mol/mol) LUVs; cited from earlier work
Text: Dathe and coauthors used POPC:LPS as model prokaryotic membranes to study peptide activity against E. coli and the role of LPS [20]. Previously, we have evaluated the membrane-permeability of P-113 and its derivatives by measuring the release of calcein from various phospholipid vesicles such as POPC:POPG (3:1, mol/mol) LUVs (mimic the anionic bacterial membrane) and POPC:LPS (4:1, mol/mol) LUVs (served as surrogates of Gram-negative bacterial membranes that contain LPS). […] Nal- ...

human fibroblasts (HFW) = conditions: peptide >25 µg/mL; cited from earlier work
mice = conditions: mouse, in vivo, 10 mg/kg; cited from earlier work
[14] = among the P-113 derivatives; cited from earlier work
Text: The two terminal β-naphthylalanine residues of S1-Nal-Nal (Ac-[…]alNal-NH2) were inserted into the hydrophobic lipid A motif of LPS micelles. […] Similarly, derivatives with phenylalanine-(Phe-P-113), β-naphthylalanine- (Nal-P-1 ...

E. coli ATCC 25922 [15] = assay: Time killing assay; type: cell-based, Escherichia coli; conditions: E. coli ATCC 25922, 5 × 10^5 CFU/mL, 1 × MIC, 0.5-24 h, 37 °C; triplicate
Method: as §3

Gram-negative bacteria = conditions: cited from earlier work
Text: CLP-19 was derived from the core domain of Limulus anti-LPS factor (LALF; amino acids 31–52) with a sequence of ([…]) and a head to tail disulfide bond. It is likely that the positive charges of CLP-19 can interact with the negative charges of LPS and the hydrophobic part of CLP-19 can bind to the f ...

Row | Molecule | MIC [1] [µg/mL] | MIC [2] [µg/mL] | MIC [3] [µg/mL] | MIC [4] [µg/mL] | MIC [5] [µg/mL] | MIC [6] [µg/mL] | MIC [7] [µg/mL] | MIC (E. coli ATCC 25922 [8]) [µg/mL] | MICs against these bacterial strains [9] | synergy with vancomycin (interpretation of FICI) [10] | killing kinetics [11] | entry of BODIPY-labeled vancomycin into the bacteria (rank order) (E. faecium BCRC 15B0132) | entry of BODIPY-labeled vancomycin into the bacteria (rank order) (E. coli ATCC 25922 [12]) | calcein leakage from LUVs [13] | cell death (MTT) (human fibroblasts (HFW)) | adverse effect in mice (mice) | serum proteolytic stability [14] | killing kinetics (E. coli ATCC 25922 [15]) | antibiotic-induced release of LPS (Gram-negative bacteria)
1 | CC(=O)N[C@@H](C)C(=O)N[C@@H](CCCCN)C(=O)N[C@@H](CCCNC(=N)N)C(=O)N[C@@H](Cc1ccc(-c2ccccc2)cc1)C(=O)N[C@@H](Cc1ccc(-c2ccccc2)cc1)C(=O)NCC(=O)N[C@@H](Cc1ccc(O)cc1)C(=O)N[C@@H](CCCCN)C(=O)N[C@@H](CCCNC(=N)N)C(=O)N[C@@H](CCCCN)C(=O)N[C@@H](Cc1ccccc1)C(=O)N[C@@H](Cc1ccc(-c2ccccc2)cc1)C(N)=O [Bip-P-113] (Ac-AKR[Bip][Bip]GYKRKF[Bip]-NH2) | 4 (≈ 2.15 µM) | 16 (≈ 8.58 µM) | 16 (≈ 8.58 µM) | 8 (≈ 4.29 µM) | 16 (≈ 8.58 µM) | 16 (≈ 8.58 µM) | 8 (≈ 4.29 µM) | 32 (≈ 17.2 µM) | best MICs | best synergy with vancomycin against all of the bacterial strains tested | rapid bactericidal activity | Bip-P-113 = Nal-P-113 > Dip-P-113 > Phe-P-113 = P-113 | Bip-P-113 > Nal-P-113 > Dip-P-113 > Phe-P-113 = P-113 | strongest ability to induce calcein leakage | 10–20% | did not observe any adverse effect | enhanced | – | –
2 | CC(=O)N[C@@H](C)C(=O)N[C@@H](CCCCN)C(=O)N[C@@H](CCCNC(=N)N)C(=O)N[C@@H](Cc1ccc2ccccc2c1)C(=O)N[C@@H](Cc1ccc2ccccc2c1)C(=O)NCC(=O)N[C@@H](Cc1ccc(O)cc1)C(=O)N[C@@H](CCCCN)C(=O)N[C@@H](CCCNC(=N)N)C(=O)N[C@@H](CCCCN)C(=O)N[C@@H](Cc1ccccc1)C(=O)N[C@@H](Cc1ccc2ccccc2c1)C(N)=O [Nal-P-113] (Ac-AKR[2Nal][2Nal]GYKRKF[2Nal]-NH2) | 4 (≈ 2.24 µM) | 8 (≈ 4.48 µM) | 8 (≈ 4.48 µM) | 8 (≈ 4.48 µM) | 8 (≈ 4.48 µM) | 8 (≈ 4.48 µM) | 16 (≈ 8.96 µM) | 32 (≈ 17.9 µM) | best MICs | synergistic effects against VRE, VISA 03, VRSA 01, VRSA 02, VRSA 03, and E. coli | rapid bactericidal activity | Bip-P-113 = Nal-P-113 > Dip-P-113 > Phe-P-113 = P-113 | Bip-P-113 > Nal-P-113 > Dip-P-113 > Phe-P-113 = P-113 | dose-dependent calcein leakage | 10–20% | – | – | fastest bactericidal activity | –
3 | CHYRIKPTFRRLKWKYKGKFWC (disulfide 1-22 (inferred)) [CLP-19, antimicrobial peptide derived from the core domain of Limulus anti-LPS factor, with a disulfide bond] | – | – | – | – | – | – | – | – | – | – | – | – | – | – | – | – | – | – | reduce antibiotic-induced release of LPS

From article PMC7369893, “Antimicrobial Peptides Display Strong Synergy with Vancomycin Against Vancomycin-Resistant E. faecium, S. aureus, and Wild-Type E. coli” (International Journal of Molecular Sciences, 2020)
